Data reported in patent US11976083B2, “Inhibitors of peptidylarginine deiminases” (Gilead Sciences, Inc., priority 2020, dated 2024).

target: T1, human PAD4 (Homo sapiens, UniProt Q9UM07); experiment: In vitro PAD4 BAEE biochemical assay; details: BAEE substrate 3 mM, 5 nM PAD4, 2 mM calcium chloride; geometric mean of multiple experiments
T1 construct: human PAD4 (NM_012387), A2-P663, was PCR amplified; His-SUMO (N, cleaved yes); made in house; host or cells: E. coli BL21(DE3)
In short: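 Ammonia produced by BAEE deimination (3 mM substrate, 2 h, 25 °C) was read as fluorescent isoindole after o-phthalaldehyde/DTT derivatization, ex 405 nm/em 535 nm. Human PAD4 at 5 nM final, 2 mM calcium, pH 7.6 MOPS; compound preincubated 30 min. IC50s, normalized to BB-Cl-Amidine and DMSO controls, were geometric-mean averaged.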

T1 sequence (Q9UM07 2-663): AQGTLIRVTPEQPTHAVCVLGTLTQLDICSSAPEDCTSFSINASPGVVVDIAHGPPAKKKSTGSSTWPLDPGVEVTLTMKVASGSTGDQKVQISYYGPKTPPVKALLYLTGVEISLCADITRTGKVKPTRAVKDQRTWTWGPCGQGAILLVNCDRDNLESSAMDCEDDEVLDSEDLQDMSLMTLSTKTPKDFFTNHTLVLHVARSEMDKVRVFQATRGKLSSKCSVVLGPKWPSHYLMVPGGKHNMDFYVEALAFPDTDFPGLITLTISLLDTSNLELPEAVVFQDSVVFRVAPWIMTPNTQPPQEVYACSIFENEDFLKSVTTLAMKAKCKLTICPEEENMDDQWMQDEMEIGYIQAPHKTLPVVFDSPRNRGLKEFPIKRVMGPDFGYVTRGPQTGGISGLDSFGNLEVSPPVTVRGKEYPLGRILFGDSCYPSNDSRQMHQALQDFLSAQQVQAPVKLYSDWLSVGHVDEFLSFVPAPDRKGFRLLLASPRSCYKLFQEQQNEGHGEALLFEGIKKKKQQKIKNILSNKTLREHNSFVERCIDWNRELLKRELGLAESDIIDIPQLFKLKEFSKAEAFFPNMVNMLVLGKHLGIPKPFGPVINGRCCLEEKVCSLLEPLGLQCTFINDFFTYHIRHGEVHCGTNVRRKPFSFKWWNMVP

First: COc1cc(C(=O)N2C[C@H](N)[C@@H]3CC[C@H]2C3)cc2nc(-c3cc4ccc5nc4n3CC(F)(F)CCCc3ccccc3C(=O)N[C@@H]5C)n(C)c12 [Example 716, (2~{R})-17-[5-[(1~{S},4~ {R},5~{R})-4-amino-2-azabicyclo[3.2.1]octane-2-carbonyl]-7-methoxy-1-methyl-benzimidazol-2-yl]-14,14-difluoro-2-methyl-3,16,22-triazatetracyclo [14.5.2.0^{5,10}.0^{19,23}] tricosa-1(22),5(10),6,8,17, 19(23),20-heptaen-4-one]
Second: COc1cc(C(=O)N2[C@H]3CC[C@@H]2[C@H](N)[C@H](OC)C3)cc2nc(-c3cc4ccc5nc4n3CC(F)(F)CCC[C@@H]3C[C@H]3C(=O)N[C@@H]5C)n(C)c12 [Example 726, (2~{R},5~{R},7~{R})-14-[5-[(1~{R},2~{S},3~{R}, 5~{S})-2-amino-3-methoxy-8-azabicyclo[3.2.1]octane-8-carbonyl]-7-methoxy-1-methyl-benzimidazol-2-yl]-11,11-difluoro-2-methyl-3,13,19-triazatetracyclo[11.5.2.0^ {5,7}.0^{16,20}] icosa-1(19),14,16(20), 17-tetraen-4-one]
The IC50 of the first is 1.8-fold lower: 13 nM for the first, 23 nM for the second. The first is the more potent here.

Going from `C[C@H]1NC(=O)[C@@H]2C[C@@]2(F)CCCCCn2c(-c3nc4cc(C(=O)N5C[C@H](N)[C@@H]6CC[C@H]5C6)cc(F)c4n3C)cc3ccc1nc32` [Example 717, (2~{R},5~{S},7~{S})-14-[5-[(1~{S},4~{R},5~{R})-4-amino-2-azabicyclo[3.2.1]octane-2-carbonyl]-7-fluoro-1-methyl-benzimidazol-2-yl]-7-fluoro-2-methyl-3,13,19-triazatetracyclo [11.5.2.0^{5,7}.0^{16,20}] icosa-1(19),14,16(20), 17-tetraen-4-one] to `COc1cc(C(=O)N2C[C@H]3CC[C@@H]2[C@@H]3N)cc2nc(-c3cc4ccc5nc4n3CCCCCC[C@@](C)(C(F)(F)F)C(=O)N[C@@H]5C)n(C)c12` [Example 722, (8~{R},11~{R})-17-[5-[(1~{R},4~{R},7~{R})-7-amino-2-azabicyclo [2.2.1]heptane-2-carbonyl]-7-methoxy-1-methyl-benzimidazol-2-yl]-8,11-dimethyl-8-(trifluoromethyl)-1,10,19-triazatricyclo [10.5.2.0^{15,18}]nonadeca-12(19),13,15(18),16-tetraen-9-one], the IC50 rises from 11 nM to 174 nM (16-fold). The first is the more potent here.

`COc1cc(C(=O)N2CC[C@@H](OC)[C@@H](N)C2)cc2nc(-c3cc4ccc5nc4n3CCCCCC[C@@](C)(C(F)(F)F)C(=O)N[C@@H]5C)n(C)c12` [Example 719, (8~{R},11~{R})-17-[5-[(3~{S},4~{R})-3-amino-4-methoxy-piperidine-1-carbonyl]-7-methoxy-1-methyl-benzimidazol-2-yl]-8,11-dimethyl-8-(trifluoromethyl)-1,10,19-triazatricyclo[10.5.2.0^ {15,18}]nonadeca-12(19),13,15(18),16-tetraen-9-one] and `COc1cc(C(=O)N2CC[C@@H](OC)[C@@H](N)C2)cc2nc(-c3cc4ccc5nc4n3CCCCCC[C@](C)(C(F)(F)F)C(=O)N[C@@H]5C)n(C)c12` [Example 720, (8~{S},11~{R})-17-[5-[(3~ {S},4~{R})-3-amino-4-methoxy-piperidine-1-carbonyl]-7-methoxy-1-methyl-benzimidazol-2-yl]-8,11-dimethyl-8-(trifluoromethyl)-1,10,19-triazatricyclo[10.5.2.0^ {15,18}]nonadeca-12(19),13,15(18),16-tetraen-9-one] are within 1.5-fold of each other in IC50: 91 nM for the first, 65 nM for the second.

First: COc1cc(C(=O)N2CC[C@@H](OC(F)F)[C@@H](N)C2)cc2nc(-c3cc4ccc5nc4n3CCCCCC[C@@](C)(C(F)(F)F)C(=O)N[C@@H]5C)n(C)c12 [Example 723, (8~{R},11~{R})-17-[5-[(3~ {S},4~{R})-3-amino-4-(difluoromethoxy)piperidine-1-carbonyl]-7-methoxy-1-methyl-benzimidazol-2-yl]-8,11-dimethyl-8-(trifluoromethyl)-1,10,19-triazatricyclo[10.5.2.0^ {15,18}]nonadeca-12(19), 13,15(18),16-tetraen-9-one]
Second: COc1cc(C(=O)N2CC[C@@H](OC(F)F)[C@@H](N)C2)cc2nc(-c3cc4ccc5nc4n3CCCCCC[C@](C)(C(F)(F)F)C(=O)N[C@@H]5C)n(C)c12 [Example 725, (8~{S},11~{R})-17-[5-[(3~ {S},4~{R})-3-amino-4-(difluoromethoxy)piperidine-1-carbonyl]-7-methoxy-1-methyl-benzimidazol-2-yl]-8,11-dimethyl-8-(trifluoromethyl)-1,10,19-triazatricyclo[10.5.2.0^ {15,18}]nonadeca-12(19),13,15(18),16-tetraen-9-one]
The IC50 of the first is 2.3-fold higher: 309 nM for the first, 136 nM for the second. The second is the more potent here.

`COc1cc(C(=O)N2C[C@H]3CC[C@@H]2[C@@H]3N)cc2nc(-c3cc4ccc5nc4n3CCCCCC[C@](C)(C(F)(F)F)C(=O)N[C@@H]5C)n(C)c12` [Example 724, (8~{S},11~{R})-17-[5-[(1~{R},4~{R},7~{R})-7-amino-2-azabicyclo[2.2.1]heptane-2-carbonyl]-7-methoxy-1-methyl-benzimidazol-2-yl]-8,11-dimethyl-8-(trifluoromethyl)-1,10,19-triazatricyclo [10.5.2.0^{15,18}]nonadeca-12(19),13,15(18),16-tetraen-9-one] and `COc1cc(C(=O)N2C[C@H](N)C[C@@H](F)C2)cc2nc(-c3cc4ccc5nc4n3CC(F)(F)CCCC[C@@](C)(C(F)(F)F)C(=O)N[C@@H]5C)n(C)c12` [Example 728, (8~{R},11~{R})-17-[5-[(3~ {R},5~{R})-3-amino-5-fluoro-piperidine-1-carbonyl]-7-methoxy-1-methyl-benzimidazol-2-yl]-3,3-difluoro-8,11-dimethyl-8-(trifluoromethyl)-1,10,19-triazatricyclo[10.5.2.0^ {15,18}]nonadeca-12(19),13,15(18),16-tetraen-9-one] are within 1.5-fold of each other in IC50: 94 nM for the first, 75 nM for the second.

Compared with `COc1cc(C(=O)N2CC[C@@H](OC)[C@@H](N)C2)cc2nc(-c3cc4ccc5nc4n3CC(F)(F)CCCC[C@@](C)(C(F)(F)F)C(=O)N[C@@H]5C)n(C)c12` [Example 727, (8~{R},11~{R})-17-[5-[(3~{S), 4~{R})-3-amino-4-methoxy-piperidine-1-carbonyl]-7-methoxy-1-methyl-benzimidazol-2-yl]-3,3-difluoro-8,11-dimethyl-8-(trifluoromethyl)-1,10,19-triazatricyclo[10.5.2.0^ {15,18}]nonadeca-12(19),13,15(18),16-tetraen-9-one], `CO[C@@H]1CCN(C(=O)c2cc3c4c(c2)nc(-c2cc5ccc6nc5n2CCCCC[C@@H]2C[C@H]2C(=O)N[C@@H]6C)n4CCO3)C[C@@H]1N` [Example 729, (2~{R},5~{R},7~{R})-14-[6-[(3~{S},4~{R})-3-amino-4-methoxy-piperidine-1-carbonyl]-9-oxa-1,3-diazatricyclo [6.3.1.0^{4,12}]dodeca-2,4,6,8(12)-tetraen-2-yl]-2-methyl-3,13,19-triazatetracyclo[11.5.2.0^ {5,7}.0^{16,20}] icosa-1(19),14,16(20),17-tetraen-4-one] is 3.3-fold higher in IC50: 93 nM for the first, 307 nM for the second.
